The values below come from patent US4702864A, “Analogs of platelet activating factor” (E. I. Du Pont de Nemours and Company, priority 1986, dated 1987).

Experiment [1] concerns spontaneous hypertensive rat (SHR). Briefly: Antihypertensive activity in the spontaneous hypertensive rat (SHR), intravenous. It counts as in vivo. Set-up: key to Blood pressure response: ++: Pronounced decrease in blood pressure (>50 mm Hg); +: Moderate decrease in blood pressure (35-50 mm Hg); ±: Threshold decrease in blood pressure (25-35 mm Hg); NE: No effect observed. The following applies: for Blood pressure response: SHR. The method, then: In this procedure, anesthetized rats were dosed intravenously with graded dose levels the test compound on a cumulative dose schedule. The test compound was administered in an aqueous 0.25% methylcellulose vehicle at a volume to body weight ratio of 1 mL/kg. Arterial blood pressure was continuously recorded directly through an arterial cannula and a polygraph. That dose of compound producing a reduction in mean blood pressure of 30 mm Hg, or ED30, was then determined. In this manner, an ED30 of 2.00 mg/kg was determined for compound 13BII.
The antihypertensive activity of other compounds within the scope of the present invention was determined by methods substantially similar to those reported in Example 2, above, except that intravenous dosage levels of 2 and 12 mg/kg were employed. The designation "prolonged" indicates a hypotensive response lasting from 15-30 minutes. The following designations are employed to indicate the magnitude of hypotensive response: […]

Experiment [2] has as its system tetradecanoyl phorbol acetate (TPA)-induced edema in murine ear. The experiment is described as follows: Topical anti-inflammatory activity, TPA-induced mouse ear edema. The following applies: in acetone just prior to 1 μg TPA, 4 hours after TPA. It counts as in vivo, male CF1 mice. On the procedure: Topical application of tetradecanoyl phorbol acetate (TPA) to murine skin results in an inflammatory reaction characterized by edema, a dense cellular infiltration 4-6 hours later, and an epidermal hyperplasia 24 hours following application.
To evaluate the antiinflammatory activity of certain compounds within the scope of the present invention, TPA was applied topically to ear epidermal tissue of male CF1 mice 4-6 weeks old. One μg of TPA in acetone was applied topically to one ear, while acetone only was applied to the contralateral ear of each mouse. Test compounds to be evaluated as antiinflammatory agents were applied to both ears in acetone just prior to application of TPA. Four hours after the application of the TPA, the animals were sacrificed, and 6 mm disks of tissue were excised from each treated ear and weighed. The relative amount of edema was then assessed by determining the difference in mass between control and TPA-treated tissue samples.

A further experiment addresses porcine pancreatic PLA2 (Sus scrofa, UniProt P00592). The experiment is described as follows: Inhibition of porcine pancreatic phospholipase A2 (PLA2). It counts as biochemical. The following applies: pH 8.5, 37°, 5 minutes, 14.0 uM substrate; approximation from semilog plot. The method, then: Inhibition of porcine pancreatic PLA2 was measured by a modification of the assay used by Hirata et al., Proc. Natl. Acad. Sci. USA 77:533 (1980). The enzyme-substrate reaction was run in a total volume of 0.1 mL with the enzyme at a final concentration of 19 units/mL (0.025 ug protein/mL) which gave approximately 4000-8000 dpm of activity in a buffer containing 25 mM Tris, 25 mM glycylglycine, 25 mM CaCl2 and 0.75 mM EDTA (tetra sodium salt), pH 8.5. Compounds to be tested as inhibitors were added to an aliquot of enzyme and incubated for 2 minutes, and then the substrate, [arachidonyl-1-^14 C] L-1-palmitoyl-2-arachidonyl phosphatidylcholine was added to provide a final concentration of 14.0 uM (80,000 dpm). The reaction was allowed to proceed for five minutes at 37°, and then halted by freezing the mixture in a dry ice-ethanol slurry. The arachidonic acid product was separated from unreacted substrate using silica gel columns.
All reactions were run in duplicate. Compounds to be tested were dissolved in 0.2M Tris-Cl, pH 8.5 or dissolved in DMSO and then diluted with Tris-Cl buffer (maximum DMSO concentration, 7%). An approximation of IC50 (the concentration of compound which inhibits the phospholipase activity by 50 percent) was determined for each compound from a semilog plot of percent inhibition versus the final inhibitor concentration.

Chain of porcine pancreatic PLA2 (P00592 23-146): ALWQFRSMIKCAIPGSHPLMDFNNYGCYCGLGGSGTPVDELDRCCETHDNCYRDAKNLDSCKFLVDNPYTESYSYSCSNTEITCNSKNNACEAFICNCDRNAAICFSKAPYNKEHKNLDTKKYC

Consider `CCCCCCCCCCCCCCCCCCSCC(COP(=O)([O-])OCC[N+](C)(C)C)NC(C)=O` (stereo not shown) [Compound 10B, 3-Octadecylthio-2-acetamidophosphatidylcholine], for which the Blood pressure response entry in experiment [1] (2 mg/kg) is “++ (Pronounced decrease in blood pressure (>50 mm Hg))”. In experiment [2], the “Ear Volume Reduction (%)” value was 10%. For the same compound, the IC50 against porcine pancreatic PLA2 was determined as 0.52 µM.

Compound `CCCCCCCCCCCCCCCCSCC(COP(=O)([O-])OCC[N+](C)(C)C)NC(C)=O` (stereo not shown) [Compound 10C] returned an IC50 against porcine pancreatic PLA2 of 1.1 µM.

For `CCCCCCCCSCC(COP(=O)([O-])OCC[N+](C)(C)C)NC(C)=O` (stereo not shown) [Compound 10D], the Blood pressure response result in experiment [1] (2 mg/kg) is reported as “NE”; in experiment [1] (12 mg/kg), “++ (Pronounced decrease in blood pressure (>50 mm Hg))”. Moreover, on porcine pancreatic PLA2, the IC50 is 9 µM.

Compound `CCCCCCSCC(COP(=O)([O-])OCC[N+](C)(C)C)NC(C)=O` (stereo not shown) [Compound 10E] had an IC50 on porcine pancreatic PLA2 of 98 µM.

With `CCCCCCCCCCCCCCCCCCSCC(COP(=O)([O-])OCC[N+](C)(C)C)NC(=O)OC` (stereo not shown) [Compound 13BII, 3-octadecylthio-2-carbomethoxyamidophosphatidylcholine], the ED (30 mm Hg) in experiment [1] (Rattus norvegicus, anesthetized SHR, cumulative dose schedule, aqueous 0.25% methylcellulose, read-out: ED30 (dose of compound producing a reduction in mean blood pressure of 30 mm Hg)) was found to be 2 mg/kg. Further, the Blood pressure response entry in experiment [1] (2 mg/kg) is recorded as “± (Threshold decrease in blood pressure (25-35 mm Hg))”; in experiment [1] (12 mg/kg) it was “++ (Pronounced decrease in blood pressure (>50 mm Hg))”. The IC50 against porcine pancreatic PLA2 is 19 µM.

On porcine pancreatic PLA2, `CCCCCCCCCCCCCCCCCCSCC(COP(=O)([O-])OCC[N+](C)(C)C)NC(=O)CCCCCCCCCCCCCCCCC` (stereo not shown) [Compound 13BI] showed an IC50 of 0.55 µM.

Turning to `CCCCCCCCCCCCCCCCSCC(COP(=O)([O-])OCC[N+](C)(C)C)NC(=O)OC` (stereo not shown) [Compound 13CII], the Blood pressure response entry in experiment [1] (2 mg/kg) is listed as “++ (Pronounced decrease in blood pressure (>50 mm Hg))”. The same compound registered an IC50 against porcine pancreatic PLA2 of 18 µM.

On to `CCCCCCCCCCCCCCCCSCC(COP(=O)([O-])OCC[N+](C)(C)C)NC(=O)c1ccccc1` (stereo not shown) [Compound 13CIV], for which the Blood pressure response entry in experiment [1] (2 mg/kg) is “NE”; in experiment [1] (12 mg/kg), “± (Threshold decrease in blood pressure (25-35 mm Hg))”. In addition, the “Ear Volume Reduction (%)” value in experiment [2] is given as 57%. This compound also had an IC50 at porcine pancreatic PLA2 of 1.4 µM.
